Biological target: T1, full length human recombinant glucocorticoid receptor (Homo sapiens, UniProt P04150)
T1 construct: partially purified full length human recombinant glucocorticoid receptor; purchased Panvera/Invitrogen PV4302
T1 sequence (P04150 1-777): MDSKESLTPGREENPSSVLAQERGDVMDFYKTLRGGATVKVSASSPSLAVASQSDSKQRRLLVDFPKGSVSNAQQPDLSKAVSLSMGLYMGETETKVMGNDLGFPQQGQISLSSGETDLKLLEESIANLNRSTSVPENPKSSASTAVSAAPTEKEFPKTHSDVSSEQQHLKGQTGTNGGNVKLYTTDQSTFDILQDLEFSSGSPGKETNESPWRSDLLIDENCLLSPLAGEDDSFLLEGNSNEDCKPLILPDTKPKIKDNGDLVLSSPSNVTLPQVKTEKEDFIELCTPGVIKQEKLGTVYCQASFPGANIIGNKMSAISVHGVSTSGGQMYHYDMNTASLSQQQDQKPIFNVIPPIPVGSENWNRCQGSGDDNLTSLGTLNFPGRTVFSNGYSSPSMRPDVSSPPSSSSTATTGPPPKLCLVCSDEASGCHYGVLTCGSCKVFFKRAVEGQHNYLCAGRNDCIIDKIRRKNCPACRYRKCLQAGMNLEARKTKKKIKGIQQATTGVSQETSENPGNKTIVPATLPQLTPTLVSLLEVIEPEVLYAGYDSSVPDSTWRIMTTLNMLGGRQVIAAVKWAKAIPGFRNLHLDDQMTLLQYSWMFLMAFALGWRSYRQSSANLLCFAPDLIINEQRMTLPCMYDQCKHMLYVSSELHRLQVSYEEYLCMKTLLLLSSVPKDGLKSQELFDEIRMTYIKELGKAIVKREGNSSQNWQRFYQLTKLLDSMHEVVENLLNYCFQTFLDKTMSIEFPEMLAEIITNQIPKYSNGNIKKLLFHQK
Experiment: Glucocorticoid Receptor Binding Assay (fluorescence polarization competitor assay, Fluormone GS Far Red tracer)
Summary of the method: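 Partially purified full-length recombinant human GR with a stabilizing coactivator peptide was incubated with Fluormone GS Far Red tracer and serially diluted compound for 3 h at 22 °C in the dark, pH 7.4. Fluorescence polarization was read at 610-660 nm. IC50 came from sigmoidal fitting, and Ki from Cheng-Prusoff.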

Row | SMILES | Ki [nM]
1 | Cc1cc([C@@](O)([C@@H](C)c2ccc(Oc3cc(C(F)(F)F)c(C(=O)O)cn3)cc2Cl)C(F)(F)F)cn(C)c1=O (stereo in doubt) [Example 206, 6-{3-Chloro-4-[2-(1,5-dimethyl-6-oxo-1,6-dihydro-pyridin-3-yl)-3,3,3-trifluoro-2-hydroxy-1-methyl-propyl]-phenoxy}-4-trifluoromethyl-nicotinic acid] | 0.7
2 | C[C@H](c1ccc(-c2ccc(C(=O)O)c(F)c2)cc1Cl)[C@@](O)(c1cnc2ccccc2c1)C(F)(F)F (stereo in doubt) [Example 225, 3′-Chloro-3-fluoro-4′-(3,3,3-trifluoro-2-hydroxy-1-methyl-2-quinolin-3-yl-propyl)-biphenyl-4-carboxylic acid] | 7.1
3 | C[C@H](c1ccc(-c2ccc(C(=O)O)c(F)c2)cc1Cl)[C@@](O)(c1ccc(C#N)n1C)C(F)(F)F (stereo in doubt) [Example 230, 3′-Chloro-4′-[2-(5-cyano-1-methyl-1H-pyrrol-2-yl)-3,3,3-trifluoro-2-hydroxy-1-methyl-propyl]-3-fluoro-biphenyl-4-carboxylic acid] | 24.9
4 | C[C@H](c1ccc(Oc2ncc(C(=O)O)cc2Cl)cc1Cl)[C@@](O)(c1ccc(C#N)n1C)C(F)(F)F (stereo in doubt) [Example 233, 5-Chloro-6-{3-chloro-4-[2-(5-cyano-1-methyl-1H-pyrrol-2-yl)-3,3,3-trifluoro-2-hydroxy-1-methyl-propyl]-phenoxy}-nicotinic acid] | 3.9
5 | Cc1cc([C@](O)([C@H](C)c2ccc(Oc3ncc(C(=O)O)cc3Cl)cc2Cl)C(F)(F)F)sc1C#N (stereo in doubt) [Example 234, 5-Chloro-6-{3-chloro-4-[2-(5-cyano-4-methyl-thiophen-2-yl)-3,3,3-trifluoro-2-hydroxy-1-methyl-propyl]-phenoxy}-nicotinic acid] | 1.3
6 | C[C@H](c1ccc(Oc2ccc(C(=O)O)cn2)cc1Cl)[C@@](O)(c1ccc(C#N)n1C)C(F)(F)F (stereo in doubt) [Example 236, 6-{3-Chloro-4-[2-(5-cyano-1-methyl-1H-pyrrol-2-yl)-3,3,3-trifluoro-2-hydroxy-1-methyl-propyl]-phenoxy}-nicotinic acid] | 22.3
7 | C[C@H](c1ccc(Oc2cnc(C(=O)O)cn2)c(Cl)c1Cl)[C@@](O)(c1ccc(=O)n(C)c1)C(F)(F)F (stereo in doubt) [Example 238, 5-{2,3-Dichloro-4-[3,3,3-trifluoro-2-hydroxy-1-methyl-2-(1-methyl-6-oxo-1,6-dihydro-pyridin-3-yl)-propyl]-phenoxy}-pyrazine-2-carboxylic acid] | 112
8 | C[C@@H](c1ccc(OC(C)(C)C(=O)O)c(Cl)c1Cl)[C@](O)(c1ccc(=O)n(C)c1)C(F)(F)F (stereo in doubt) [Example 240, 2-{2,3-Dichloro-4-[3,3,3-trifluoro-2-hydroxy-1-methyl-2-(1-methyl-6-oxo-1,6-dihydro-pyridin-3-yl)-propyl]-phenoxy}-2-methyl-propionic acid] | 82.2
9 | COC(=O)c1cnc(Oc2ccc([C@H](C)[C@](O)(c3cc(C)c(=O)n(C)c3)C(F)(F)F)c(Cl)c2)nc1C(F)(F)F (stereo in doubt) [Example 242, 2-{3-Chloro-4-[2-(1,5-dimethyl-6-oxo-1,6-dihydro-pyridin-3-yl)-3,3,3-trifluoro-2-hydroxy-1-methyl-propyl]-phenoxy}-4-trifluoromethyl-pyrimidine-5-carboxylic acid methyl ester] | 2.7

Second part, the molecule after the results:

Row | Ki [nM] | SMILES
10 | 47.9 | C[C@@H](c1cc(F)c(Oc2ccc(C(=O)O)c(F)c2)cc1Cl)[C@](O)(c1ccc(=O)n(C)c1)C(F)(F)F (stereo in doubt) [Example 202, 4-{5-Chloro-2-fluoro-4-[3,3,3-trifluoro-2-hydroxy-1-methyl-2-(1-methyl-6-oxo-1,6-dihydro-pyridin-3-yl)-propyl]-phenoxy}-2-fluoro-benzoic acid]
11 | 0.8 | COC(=O)c1ccc(Oc2ccc([C@H](C)[C@](O)(c3cc(C)c(=O)n(C)c3)C(F)(F)F)c(Cl)c2)cc1F (stereo in doubt) [Example 203, 4-{3-Chloro-4-[2-(1,5-dimethyl-6-oxo-1,6-dihydro-pyridin-3-yl)-3,3,3-trifluoro-2-hydroxy-1-methyl-propyl]-phenoxy}-2-fluoro-benzoic acid methyl ester]
12 | 0.9 | COC(=O)c1ccc(Oc2ccc([C@H](C)[C@](O)(c3cc(C)c(=O)n(C)c3)C(F)(F)F)c(Cl)c2)cc1Cl (stereo in doubt) [Example 207, 2-Chloro-4-{3-chloro-4-[2-(1,5-dimethyl-6-oxo-1,6-dihydro-pyridin-3-yl)-3,3,3-trifluoro-2-hydroxy-1-methyl-propyl]-phenoxy}-benzoic acid methyl ester]
13 | 1.4 | Cc1cc([C@@](O)([C@@H](C)c2ccc(Oc3ccc(C(=O)O)c(C(F)(F)F)n3)cc2Cl)C(F)(F)F)cn(C)c1=O (stereo in doubt) [Example 209, 6-{3-Chloro-4-[2-(1,5-dimethyl-6-oxo-1,6-dihydro-pyridin-3-yl)-3,3,3-trifluoro-2-hydroxy-1-methyl-propyl]-phenoxy}-2-trifluoromethyl-nicotinic acid]
14 | 0.7 | Cc1cc([C@@](O)([C@@H](C)c2ccc(Oc3ccc(Cl)c(C(=O)O)c3)cc2Cl)C(F)(F)F)cn(C)c1=O (stereo in doubt) [Example 211, 2-Chloro-5-{3-chloro-4-[2-(1,5-dimethyl-6-oxo-1,6-dihydro-pyridin-3-yl)-3,3,3-trifluoro-2-hydroxy-1-methyl-propyl]-phenoxy}-benzoic acid]
15 | 1.9 | CCOC(=O)c1cc(Oc2ccc([C@H](C)[C@](O)(c3cc(C)c(=O)n(C)c3)C(F)(F)F)c(Cl)c2)ccc1F (stereo in doubt) [Example 212, 5-{3-Chloro-4-[2-(1,5-dimethyl-6-oxo-1,6-dihydro-pyridin-3-yl)-3,3,3-trifluoro-2-hydroxy-1-methyl-propyl]-phenoxy}-2-fluoro-benzoic acid ethyl ester]
16 | 0.5 | Cc1cc([C@@](O)([C@@H](C)c2ccc(Oc3ccc(C(=O)O)c(C(F)(F)F)c3)cc2Cl)C(F)(F)F)cn(C)c1=O (stereo in doubt) [Example 214, 4-{3-Chloro-4-[2-(1,5-dimethyl-6-oxo-1,6-dihydro-pyridin-3-yl)-3,3,3-trifluoro-2-hydroxy-1-methyl-propyl]-phenoxy}-2-trifluoromethyl-benzoic acid]
17 | 4 | C[C@H](c1ccc(Oc2ccc(C(=O)O)c(C(F)(F)F)c2)cc1Cl)[C@@](O)(c1ccc(=O)n(C)c1)C(F)(F)F (stereo in doubt) [Example 220, 4-{3-Chloro-4-[3,3,3-trifluoro-2-hydroxy-1-methyl-2-(1-methyl-6-oxo-1,6-dihydro-pyridin-3-yl)-propyl]-phenoxy}-2-trifluoromethyl-benzoic acid]
18 | 0.6 | C[C@@H](c1ccc(Oc2ccc(C(=O)O)c(Cl)c2)cc1Cl)[C@](O)(c1cc(Cl)c(=O)n(C)c1)C(F)(F)F (stereo in doubt) [Example 222, 2-Chloro-4-{3-chloro-4-[2-(5-chloro-1-methyl-6-oxo-1,6-dihydro-pyridin-3-yl)-3,3,3-trifluoro-2-hydroxy-1-methyl-propyl]-phenoxy}-benzoic acid]
19 | 4.7 | COC(=O)c1cnc(Oc2ccc([C@H](C)[C@](O)(c3cc(Cl)c(=O)n(C)c3)C(F)(F)F)c(Cl)c2)cc1C(F)(F)F (stereo in doubt) [Example 223, 6-{3-Chloro-4-[2-(5-chloro-1-methyl-6-oxo-1,6-dihydro-pyridin-3-yl)-3,3,3-trifluoro-2-hydroxy-1-methyl-propyl]-phenoxy}-4-trifluoromethyl-nicotinic acid methyl ester]
20 | 3.8 | C[C@@H](c1ccc(Oc2cc(C(F)(F)F)c(C(=O)O)cn2)cc1Cl)[C@](O)(c1cc(Cl)c(=O)n(C)c1)C(F)(F)F (stereo in doubt) [Example 224, 6-{3-Chloro-4-[2-(5-chloro-1-methyl-6-oxo-1,6-dihydro-pyridin-3-yl)-3,3,3-trifluoro-2-hydroxy-1-methyl-propyl]-phenoxy}-4-trifluoromethyl-nicotinic acid]
21 | 64.5 | C[C@H](c1ccc(Oc2ccc(C(=O)O)c(Cl)c2)cc1Cl)[C@@](O)(c1ccc2nccnc2c1)C(F)(F)F (stereo in doubt) [Example 228, 2-Chloro-4-[3-chloro-4-(3,3,3-trifluoro-2-hydroxy-1-methyl-2-quinoxalin-6-yl-propyl)-phenoxy]-benzoic acid]
22 | 14.6 | C[C@H](c1ccc(Oc2ccc(C(=O)O)c(Cl)c2)cc1Cl)[C@@](O)(c1ccc(C#N)n1C)C(F)(F)F (stereo in doubt) [Example 232, 2-Chloro-4-{3-chloro-4-[2-(5-cyano-1-methyl-1H-pyrrol-2-yl)-3,3,3-trifluoro-2-hydroxy-1-methyl-propyl]-phenoxy}-benzoic acid]
